Species on record: Rattus norvegicus
Assay: DrugMatrix - Regimen: Daily Repeat
Format: toxicity, organism-based, Sprague-Dawley
Design: regimen Daily Repeat, gender Male, age 6-8 weeks
Conditions: in vivo, po, route oral GAVAGE, vehicle 100 % WATER; for ABSOLUTE BASOPHIL / ABSOLUTE EOSINOPHIL / ABSOLUTE LYMPHOCYTE / ABSOLUTE MONOCYTE / ABSOLUTE SEGMENTED NEUTROPHIL / BASOPHIL / EOSINOPHIL / ERYTHROCYTE COUNT / HEMATOCRIT / HEMOGLOBIN / LEUKOCYTE COUNT / LYMPHOCYTE / MEAN CORPUSCULAR HEMOGLOBIN / MEAN CORPUSCULAR HEMOGLOBIN CONCENTRATION / MEAN CORPUSCULAR VOLUME / MONOCYTE / NEUTROPHIL / NUCLEATED RED BLOOD CELLS / PLATELET COUNT: tissue Blood; for ALANINE AMINOTRANSFERASE / ALBUMIN / ALKALINE PHOSPHATASE / ASPARTATE AMINOTRANSFERASE / BLOOD UREA NITROGEN / CARBON DIOXIDE / CHLORIDE / CHOLESTEROL / CREATINE PHOSPHOKINASE / CREATININE / GLUCOSE / LACTATE DEHYDROGENASE / LIPASE / PHOSPHORUS / POTASSIUM / SODIUM / TOTAL BILIRUBIN / TOTAL PROTEIN / URIC ACID: tissue Plasma
[1] = 0 mg/kg, 72 h, dose level Control, time 3 day
[2] = 0 mg/kg, 120 h, dose level Control, time 5 day
[3] = 28 mg/kg, 72 h, dose level Low, time 3 day

Compound: CS(=O)(=O)c1ccc([C@@H](O)[C@@H](CO)NC(=O)C(Cl)Cl)cc1 [THIAMPHENICOL]
- ABSOLUTE BASOPHIL [1]: 0 CELLS/uL
- ABSOLUTE EOSINOPHIL [1]: 151.33 CELLS/uL
- ABSOLUTE LYMPHOCYTE [1]: 10599.5 CELLS/uL
- ABSOLUTE MONOCYTE [1]: 109.5 CELLS/uL
- ABSOLUTE SEGMENTED NEUTROPHIL [1]: 1139.67 CELLS/uL
- BASOPHIL [1]: 0%
- EOSINOPHIL [1]: 0.83%
- ERYTHROCYTE COUNT [1]: 5.54 x10E6/uL
- HEMATOCRIT [1]: 35.35%
- HEMOGLOBIN [1]: 13.22 G/DL
- LEUKOCYTE COUNT [1]: 12 x10E3/uL
- LYMPHOCYTE [1]: 89%
- MEAN CORPUSCULAR HEMOGLOBIN [1]: 23.88 pg
- MEAN CORPUSCULAR HEMOGLOBIN CONCENTRATION [1]: 37.4 G/DL
- MEAN CORPUSCULAR VOLUME [1]: 63.85 fL
- MONOCYTE [1]: 1%
- NEUTROPHIL [1]: 9.17%
- NUCLEATED RED BLOOD CELLS [1]: 0 /100WBC
- PLATELET COUNT [1]: 1333.33 x10E3/uL
- ALANINE AMINOTRANSFERASE [1]: 53.17 u/L
- ALBUMIN [1]: 4.32 G/DL
- ALKALINE PHOSPHATASE [1]: 404.33 u/L
- ASPARTATE AMINOTRANSFERASE [1]: 83.17 u/L
- BLOOD UREA NITROGEN [1]: 15.67 mg/dL
- CARBON DIOXIDE [1]: 27.33 mmol/L
- CHLORIDE [1]: 101.83 MEQ/L
- CHOLESTEROL [1]: 68.67 mg/dL
- CREATINE PHOSPHOKINASE [1]: 276.17 u/L
- CREATININE [1]: 0.18 mg/dL
- GLUCOSE [1]: 163.5 mg/dL
- LACTATE DEHYDROGENASE [1]: 144.67 u/L
- LIPASE [1]: 8.83 u/L
- PHOSPHORUS [1]: 11.72 mg/dL
- POTASSIUM [1]: 5.99 MEQ/L
- SODIUM [1]: 143.57 MEQ/L
- TOTAL BILIRUBIN [1]: 0.2 mg/dL
- TOTAL PROTEIN [1]: 6.1 G/DL
- URIC ACID [1]: 1.38 mg/dL
- ABSOLUTE BASOPHIL [2]: 0 CELLS/uL
- ABSOLUTE EOSINOPHIL [2]: 248.67 CELLS/uL
- ABSOLUTE LYMPHOCYTE [2]: 12977.83 CELLS/uL
- ABSOLUTE MONOCYTE [2]: 19.67 CELLS/uL
- ABSOLUTE SEGMENTED NEUTROPHIL [2]: 1137.17 CELLS/uL
- BASOPHIL [2]: 0%
- EOSINOPHIL [2]: 1.67%
- ERYTHROCYTE COUNT [2]: 5.82 x10E6/uL
- HEMATOCRIT [2]: 36.35%
- HEMOGLOBIN [2]: 13.58 G/DL
- LEUKOCYTE COUNT [2]: 14.38 x10E3/uL
- LYMPHOCYTE [2]: 90.5%
- MEAN CORPUSCULAR HEMOGLOBIN [2]: 23.32 pg
- MEAN CORPUSCULAR HEMOGLOBIN CONCENTRATION [2]: 37.42 G/DL
- MEAN CORPUSCULAR VOLUME [2]: 62.42 fL
- MONOCYTE [2]: 0.17%
- NEUTROPHIL [2]: 7.67%
- NUCLEATED RED BLOOD CELLS [2]: 0 /100WBC
- PLATELET COUNT [2]: 1337.67 x10E3/uL
- ALANINE AMINOTRANSFERASE [2]: 48.5 u/L
- ALBUMIN [2]: 4.32 G/DL
- ALKALINE PHOSPHATASE [2]: 354.33 u/L
- ASPARTATE AMINOTRANSFERASE [2]: 80 u/L
- BLOOD UREA NITROGEN [2]: 16 mg/dL
- CARBON DIOXIDE [2]: 27.33 mmol/L
- CHLORIDE [2]: 100.33 MEQ/L
- CHOLESTEROL [2]: 68 mg/dL
- CREATINE PHOSPHOKINASE [2]: 325.17 u/L
- CREATININE [2]: 0.23 mg/dL
- GLUCOSE [2]: 172 mg/dL
- LACTATE DEHYDROGENASE [2]: 254.83 u/L
- LIPASE [2]: 8.33 u/L
- PHOSPHORUS [2]: 12.17 mg/dL
- POTASSIUM [2]: 6.28 MEQ/L
- SODIUM [2]: 143.57 MEQ/L
- TOTAL BILIRUBIN [2]: 0.18 mg/dL
- TOTAL PROTEIN [2]: 6.12 G/DL
- URIC ACID [2]: 1.78 mg/dL
- ABSOLUTE BASOPHIL [3]: 0 CELLS/uL
- ABSOLUTE EOSINOPHIL [3]: 49.67 CELLS/uL
- ABSOLUTE LYMPHOCYTE [3]: 5981.33 CELLS/uL
- ABSOLUTE MONOCYTE [3]: 18.33 CELLS/uL
- ABSOLUTE SEGMENTED NEUTROPHIL [3]: 584 CELLS/uL
- BASOPHIL [3]: 0%
- EOSINOPHIL [3]: 0.67%
- ERYTHROCYTE COUNT [3]: 5.43 x10E6/uL
- HEMATOCRIT [3]: 34.57%
- HEMOGLOBIN [3]: 13.07 G/DL
- LEUKOCYTE COUNT [3]: 6.63 x10E3/uL
- LYMPHOCYTE [3]: 90%
- MEAN CORPUSCULAR HEMOGLOBIN [3]: 24 pg
- MEAN CORPUSCULAR HEMOGLOBIN CONCENTRATION [3]: 37.8 G/DL
- MEAN CORPUSCULAR VOLUME [3]: 63.6 fL
- MONOCYTE [3]: 0.33%
- NEUTROPHIL [3]: 9%
- NUCLEATED RED BLOOD CELLS [3]: 0 /100WBC
- PLATELET COUNT [3]: 1197 x10E3/uL
- ALANINE AMINOTRANSFERASE [3]: 57.33 u/L
- ALBUMIN [3]: 4.33 G/DL
- ALKALINE PHOSPHATASE [3]: 344.67 u/L
- ASPARTATE AMINOTRANSFERASE [3]: 83 u/L
- BLOOD UREA NITROGEN [3]: 16 mg/dL
- CARBON DIOXIDE [3]: 29 mmol/L
- CHLORIDE [3]: 102.33 MEQ/L
- CHOLESTEROL [3]: 74.33 mg/dL
- CREATINE PHOSPHOKINASE [3]: 180 u/L
- CREATININE [3]: 0.21 mg/dL
- GLUCOSE [3]: 145.33 mg/dL
- LACTATE DEHYDROGENASE [3]: 123 u/L
- LIPASE [3]: 8.33 u/L
- PHOSPHORUS [3]: 13.03 mg/dL
- POTASSIUM [3]: 6.66 MEQ/L
- SODIUM [3]: 147.17 MEQ/L
- TOTAL BILIRUBIN [3]: 0.17 mg/dL
- TOTAL PROTEIN [3]: 6.53 G/DL
- URIC ACID [3]: 1.33 mg/dL

Source: ChEMBL document CHEMBL3885881, “DrugMatrix”
